# Source: ChEMBL document CHEMBL5260825, “Chemical Constituents of Bryophytes: Structures and Biological Activity” (J Nat Prod, 2018)
# Values joined by “and” are separate entries in the source; they are usually repeats but may differ in a detail not shown here. Equal values may be shown once.
# Legend:
# [1] = test system: Candida albicans; assay: Antifungal activity against Candida albicans assessed as inhibition of fungal growth by MTT assay; format: functional
# [2] = test system: Bacillus subtilis; assay: Antibacterial activity against Bacillus subtilis assessed as inhibition of bacterial growth; format: functional
# [3] = test system: Trichophyton mentagrophytes; assay: Antifungal activity against Trichophyton mentagrophytes assessed as inhibition of microbial growth; format: functional
# [4] = test system: Candida albicans; assay: Antifungal activity against Candida albican ATCC10231 assessed as inhibition of fungal growth by measuring minimal inhibitory quantity by microdilution method; format: functional
# [5] = test system: Candida albicans; assay: Antifungal activity against Candida albican ATCC10231 assessed as inhibition of fungal growth by microdilution method; format: functional
# [6] = test system: Zymoseptoria tritici; assay: Antifungal activity against Zymoseptoria tritici assessed as inhibition of microbial growth by microtiter plate based analysis; format: functional, organism-based
# [7] = test system: Pyricularia oryzae; assay: Antifungal activity against Pyricularia oryzae assessed as inhibition of microbial growth by microtiter plate based analysis; format: functional, organism-based
# [8] = test system: Botrytis cinerea; assay: Antifungal activity against Botrytis cinerea assessed as inhibition of microbial growth by microtiter plate based analysis; format: functional, organism-based
# [9] = Antiplatelet activity against collagen-induced rabbit platelet assessed as inhibition of platelet aggregation at 100 ug/ml relative to control; format: functional; details: Oryctolagus cuniculus
# [10] = Antiplatelet activity against arachidonate-induced rabbit platelet assessed as inhibition of platelet aggregation at 100 ug/ml relative to control; format: functional; details: Oryctolagus cuniculus
# [11] = Inhibition of superoxide anion radical release in rabbit polymorphonuclear leucocytes; format: functional, cell-based; details: Oryctolagus cuniculus, Polymorphonuclear neutrophil
# [12] = test system: Peritoneal macrophage cell; assay: Inhibition of superoxide anion radical release in guinea pig peritoneal macrophages; format: functional, cell-based; details: Cavia porcellus
# [13] = test system: P388; assay: Antiproliferative activity against mouse P388 cells assessed as cell growth inhibition; format: functional, cell-based
# [14] = test system: Panel NCI-60 (60 carcinoma cell lines); assay: Antiproliferative activity against human Panel NCI-60 (60 carcinoma cell lines) assessed as cell growth inhibition; format: functional
# [15] = test system: Pyricularia oryzae; assay: Antifungal activity against Pyricularia oryzae assessed as inhibition of microbial growth; format: functional, organism-based
# [16] = test system: Trypanosoma brucei brucei; assay: […] activity against Trypanosoma brucei brucei GUTat 3.1 assessed as inhibition of parasite growth measured after 72 hrs by alamar blue assay; format: functional, organism-based; details: GUTat 3.1, 72 h, read-out: EC50
# [17] = molecular target: Cathepsin B (Homo sapiens) (UniProt P07858); assay: Inhibition of Cathepsin B (unknown origin) at 0.00001 M relative to control; details: dose 10 µM
# [18] = molecular target: Procathepsin L (Homo sapiens) (UniProt P07711); assay: Inhibition of Cathepsin L (unknown origin) at 0.00001 M relative to control; details: dose 10 µM
# [19] = test system: Cladosporium cucumerinum; assay: Antifungal activity against Cladosporium cucumerinum assessed as inhibition of microbial growth by bioautographic TLC method; format: functional
# [20] = test system: RAW264.7; assay: Inhibition of LPS-induced NO production in mouse RAW264.7 cells incubated for 24 hrs by Griess reagent based assay; format: functional, cell-based; details: RAW264.7, 24 h
# [21] = Antioxidant activity assessed as DPPH radical scavenging activity; format: functional
# [22] = test system: HL-60; assay: Antiproliferative activity against human HL-60 cells assessed as cell growth inhibition; format: functional, cell-based
# [23] = Toxicity in brine shrimp assessed as lethality; details: artemia salina
# [24] = test system: Staphylococcus aureus; assay: Antibacterial activity against Staphylococcus aureus assessed as inhibition of bacterial growth by agar diffusion method; format: functional
# [25] = test system: Phytophthora infestans; assay: Antifungal activity against Phytophthora infestans assessed as inhibition of microbial growth by microtiter plate based analysis; format: functional, organism-based
# [26] = test system: Candida albicans; assay: Antifungal activity against Candida albicans assessed as inhibition of fungal growth by MTT method; format: functional
# [27] = molecular target: T1, Polyunsaturated fatty acid 5-lipoxygenase (Homo sapiens) (UniProt P09917); assay: Inhibition of ALOX5 (unknown origin) assessed as reduction in calmodulin level
# T1 sequence (whole entry): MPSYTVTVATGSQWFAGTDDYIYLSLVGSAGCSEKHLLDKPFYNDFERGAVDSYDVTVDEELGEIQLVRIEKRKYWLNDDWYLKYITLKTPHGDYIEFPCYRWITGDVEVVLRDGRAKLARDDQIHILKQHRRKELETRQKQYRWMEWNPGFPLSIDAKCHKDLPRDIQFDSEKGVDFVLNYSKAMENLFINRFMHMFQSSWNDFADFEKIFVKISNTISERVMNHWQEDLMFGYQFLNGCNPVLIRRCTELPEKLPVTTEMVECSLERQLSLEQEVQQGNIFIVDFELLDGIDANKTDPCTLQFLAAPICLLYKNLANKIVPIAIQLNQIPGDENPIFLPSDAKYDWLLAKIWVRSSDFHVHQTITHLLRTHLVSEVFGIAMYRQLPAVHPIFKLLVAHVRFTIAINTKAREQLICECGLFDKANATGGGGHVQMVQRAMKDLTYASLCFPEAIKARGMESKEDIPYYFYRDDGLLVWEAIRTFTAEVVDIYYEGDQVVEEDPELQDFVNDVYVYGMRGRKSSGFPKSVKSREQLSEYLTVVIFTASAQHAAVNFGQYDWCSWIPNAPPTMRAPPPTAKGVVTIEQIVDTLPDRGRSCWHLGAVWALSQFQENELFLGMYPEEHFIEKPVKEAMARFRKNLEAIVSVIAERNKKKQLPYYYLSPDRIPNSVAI
# [28] = test system: Trypanosoma brucei brucei; assay: Antitrypanosomal activity against bloodstream Trypanosoma brucei brucei assessed as parasite growth inhibition measured after 72 hrs by alamar blue assay; format: functional, organism-based
# [29] = molecular target: Cyclooxygenase (Homo sapiens, UniProt P35354+P23219); assay: Inhibition of COX (unknown origin); format: protein assay
# [30] = test system: K562; assay: Antiproliferative activity against human K562 cells assessed as cell growth inhibition; format: functional
# [31] = test system: M14; assay: Antiproliferative activity against human M14 cells assessed as cell growth inhibition; format: functional
# [32] = test system: MCF7; assay: Antiproliferative activity against human MCF7 cells assessed as cell growth inhibition; format: functional, cell-based
# [33] = test system: HT-29; assay: Antiproliferative activity against human HT-29 cells assessed as cell growth inhibition; format: functional, cell-based
# [34] = Cytotoxicity against mouse 3T3 cells assessed as reduction in cell viability; format: toxicity, cell-based; details: NIH3T3 cells
# [35] = test system: DU-145; assay: Antiproliferative activity against human DU-145 cells assessed as cell growth inhibition; format: functional
# Sequence of Procathepsin L (Homo sapiens) (P07711 114-333 limits assumed): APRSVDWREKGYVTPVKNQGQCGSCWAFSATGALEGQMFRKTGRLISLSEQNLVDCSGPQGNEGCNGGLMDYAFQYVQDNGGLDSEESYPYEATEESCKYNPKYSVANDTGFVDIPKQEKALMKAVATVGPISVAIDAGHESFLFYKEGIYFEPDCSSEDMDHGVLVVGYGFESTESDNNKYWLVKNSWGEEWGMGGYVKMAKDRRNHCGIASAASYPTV
smiles,measurement,setting,value
Oc1cc2ccc1Oc1cccc(c1)CCc1ccc(O)c(c1)Oc1ccc(cc1)CC2,MID,[1],0.25 µg/mL
same,MIC,[2],1.5 mg/L
same,MIC,[3],1 mg/L
Oc1ccc2c(c1)CCc1ccc(O)c(c1)Oc1ccc(cc1)CCc1cccc(c1)O2 [PTYCHANOL A],MIC,[4],0.25 µg
same,MIC,[5],16 mg/L
Oc1ccc2c(c1)CCc1ccc(O)c(c1)-c1cc(cc(Cl)c1O)/C=C(/Cl)c1ccc-2c(O)c1,IC50,[6],15.9 mg/L
same,IC50,[7],3.9 mg/L
same,IC50,[8],7.6 mg/L
Oc1ccc2c(c1)CCc1ccc(O)c(c1)-c1cc(ccc1O)CCc1ccc-2c(O)c1 [ISOPLAGIOCHIN D],IC50,[6],23.5 mg/L
same,IC50,[7],4 mg/L
C=C(C)[C@H]1CC=C2C(=O)O[C@H]3C=C(C)[C@H](OO)[C@@H]1[C@@H]23,inhibition at 100 µg/mL,[9],93%
same,inhibition at 100 µg/mL,[10],50%
C=C(C=O)[C@@H]1[C@@H]2[C@H](CC[C@@]3(CO3)[C@@H]1C=O)C2(C)C,IC50,[11],6 mg/L
same,IC50,[12],40 mg/L
C=C1C(=O)C2=C[C@H]1CCC(=O)[C@]1(C)CCCC(C)(C)[C@H]1C[C@H]2O,GI50,[13],0.1 µg/mL and 300 nM
same,IC50,[13],0.06 mg/L
same,GI50,[14],1.2 µM
Cc1ccc2c(c1O)[C@@H](C(C)C)CC[C@H]2C,IC50,[15],1.7 mg/L
CC1=CCC[C@]2(C)CC[C@@H](C(C)(C)O)C[C@@H]12,EC50,[16],0.45 µM
Oc1ccc2cc1Oc1ccc(cc1)CCc1cccc(c1)Oc1c(O)cccc1CC2,inhibition,[17],93%
same,inhibition,[18],95%
C=C1CC[C@@H]2[C@H]1[C@H]1OC(=O)C(=C)[C@@H]1CC[C@@]2(C)OC(C)=O,MIC,[19],10 mg/L
CC1(C)CCC[C@]1(C)c1cc(CCc2cc(O)c(O)c([C@@]3(C)CCCC3(C)C)c2)cc(O)c1O,IC50,[20],4.1 µM
same,IC50,[21],2 mg/L
same,IC50,[22],2.5 mg/L
same,MIC,[2],2 mg/L
COc1ccc(CCc2c(Cl)ccc(O)c2Cl)cc1Cl,LC50,[23],0.42 ppm
Cc1cc(O)c(O)c([C@@]2(C)CCCC2(C)C)c1,IC50,[20],4.1 µM
same,IC50,[21],1.9 mg/L
same,IC50,[22],1.4 mg/L
same,MIC,[2],2 mg/L
same,diameter of the inhibition zone (DIZ),[24],17 mm
CC1=CC[C@H]2C(C)(C)CCC[C@]2(C)[C@H]1C=O,IC50,[6],17.6 mg/L
same,IC50,[25],< 0.03 mg/L
C=C1CC[C@]2(C)[C@@H](O)[C@H]1[C@]1(C)CCC[C@@]12C,IC50,[25],0.1 mg/L
Oc1ccc2c(c1)CCc1ccc(O)c(c1)-c1cc(cc(Cl)c1O)CCc1ccc-2c(O)c1,IC50,[6],4.5 mg/L
same,IC50,[7],2.6 mg/L
same,IC50,[8],18.9 mg/L
COC(=O)c1c(C)cc(O)c(C)c1O [ATRARIC ACID],MIC,[26],0.6 mg/L
C=C(C)[C@H]1Cc2c(CCc3ccccc3)cc(O)c(O)c2O1,ID50,[27],2 mg/L
same,IC50,[28],0.44 mg/L
same,IC50,[29],26.2 µM
C=C1C(=O)O[C@@H]2[C@H]3C(C)=C[C@H]4OC(=O)C(=CC[C@@H]12)[C@@H]34,inhibition,[17],24.7%
same,inhibition,[18],13.4%
CC(=O)O[C@H]1OC=C(CO)[C@@H]2[C@@H]3[C@H](CC[C@@]4(CO4)[C@H]12)C3(C)C,GI50,[30],8.7 µM
same,GI50,[31],6.4 µM
same,GI50,[32],9 µM
same,GI50,[33],6.1 µM
same,GI50,[34],3.8 µM
same,GI50,[35],4.8 µM
